Assay results: US12071404B2, “Aza (indole)-, benzothiophene-, and benzofuran-3-sulfonamides” (UCB Pharma GmbH, priority 2016, dated 2024)

Legend:
[1] = biological target: T1, GPR17 (Homo sapiens, UniProt Q13304); test: Calcium mobilization functional assay (GPR17 Ca2+ assay); format: cell-based; design: host or cells: Flp-In T-REx CHO; conditions: CHO hGPR17 cells, inhibition of 50 nM MDL29,951, Calcium 5 dye, FLIPR; read-out: Ca2+ assay pIC50 (converted)
Outline: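 Flp-In T-REx CHO cells stably expressing human GPR17, doxycycline-induced (1 μg/mL, 16-20 h), loaded 60 min with Calcium 5 dye. Inhibition by varying test-compound concentrations of the 50 nM MDL29,951 agonist response was read by fluorescence over time at room temperature. pIC50 came from 4-parameter logistic fitting.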

[2] = biological target: T1, GPR17; test: cAMP accumulation functional assay (HTRF, Schild analysis); format: cell-based; design: host or cells: Flp-In T-REx CHO; conditions: CHO hGPR17 cells, Schild analysis vs MDL29,951, 5 μM forskolin, read-out: cAMP assay pA2 (converted)
Outline: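 CHO Flp-In T-REx cells with doxycycline-induced human GPR17 were preincubated 30 min at room temperature in HBSS-HEPES pH 7.4 with antagonist. cAMP was then measured by HTRF after 60 min. MDL29,951 pEC50 shifts gave dose ratios, and Schild analysis gave pA2.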

T1 sequence (Q13304 whole entry): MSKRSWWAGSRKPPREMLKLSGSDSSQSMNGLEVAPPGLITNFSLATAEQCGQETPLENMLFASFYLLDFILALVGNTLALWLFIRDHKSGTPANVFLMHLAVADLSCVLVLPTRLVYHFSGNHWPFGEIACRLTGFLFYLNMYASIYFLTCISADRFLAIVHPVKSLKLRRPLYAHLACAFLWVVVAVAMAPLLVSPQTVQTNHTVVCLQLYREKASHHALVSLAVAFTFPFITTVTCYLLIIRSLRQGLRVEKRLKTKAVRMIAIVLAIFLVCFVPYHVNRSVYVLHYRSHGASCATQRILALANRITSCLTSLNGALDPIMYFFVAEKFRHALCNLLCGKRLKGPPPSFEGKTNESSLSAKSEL

| IC50 [1] [nM] | Kb [2] [nM] | SMILES |
| --- | --- | --- |
| 3.16 to 31.6 | < 3.16 | O=S(=O)(Nc1ccc(Br)cc1F)c1c[nH]c2cc(Cl)ccc12 [Compound I-212, N-(4-bromo-2-fluorophenyl)-6-chloro-1H-indole-3-sulfonamide] |
| 3.16 to 31.6 | 3.16 to 31.6 | O=S(=O)(Nc1cccc2nonc12)c1c[nH]c2cc(Cl)ccc12 [Compound I-216, N-(2,1,3-benzoxadiazol-4-yl)-6-chloro-1H-indole-3-sulfonamide] |
| 3.16 to 31.6 | 3.16 to 31.6 | CC(=O)c1ccc(NS(=O)(=O)c2c[nH]c3cc(Cl)ccc23)c(F)c1 [Compound I-219, N-(4-acetyl-2-fluorophenyl)-6-chloro-1H-indole-3-sulfonamide] |
| 3.16 to 31.6 | 3.16 to 31.6 | N#Cc1ccc(NS(=O)(=O)c2c[nH]c3cc(OCC4CC4)ccc23)c(F)c1 [Compound I-220, N-(4-cyano-2-fluorophenyl)-6-(cyclopropylmethoxy)-1H-indole-3-sulfonamide] |
| 3.16 to 31.6 | 3.16 to 31.6 | N#Cc1ccc(NS(=O)(=O)c2c[nH]c3cc(-c4cccnc4)ccc23)c(F)c1 [Compound I-229, N-(4-cyano-2-fluorophenyl)-6-(pyridin-3-yl)-1H-indole-3-sulfonamide] |
| 3.16 to 31.6 | 3.16 to 31.6 | N#Cc1ccc(NS(=O)(=O)c2c[nH]c3cc(-c4ccsc4)ccc23)c(F)c1 [Compound I-230, N-(4-cyano-2-fluorophenyl)-6-(thiophen-3-yl)-1H-indole-3-sulfonamide] |
| 3.16 to 31.6 | > 31.6 | N#Cc1ccc(NS(=O)(=O)c2c[nH]c3cc(-c4ccccc4)ccc23)c(F)c1 [Compound I-233, N-(4-cyano-2-fluorophenyl)-6-phenyl-1H-indole-3-sulfonamide] |
| 3.16 to 31.6 | < 3.16 | N#Cc1ccc(NS(=O)(=O)c2c[nH]c3cc(-c4cccs4)ccc23)c(F)c1 [Compound I-235, N-(4-cyano-2-fluorophenyl)-6-(thiophen-2-yl)-1H-indole-3-sulfonamide] |
| > 31.6 | > 31.6 | C[S+]([O-])c1ccc2c(S(=O)(=O)Nc3ccc(C#N)cc3)c[nH]c2c1 (stereo not shown) [Compound I-237, N-(4-cyanophenyl)-6-(methylsulfinyl)-1H-indole-3-sulfonamide] |
| > 31.6 | > 31.6 | CS(=O)(=O)c1ccc2c(S(=O)(=O)Nc3cccc4c3OC(F)(F)O4)c[nH]c2c1 [Compound I-240, N-(2,2-difluoro-1,3-benzodioxol-4-yl)-6-methylsulfonyl-1H-indole-3-sulfonamide] |
| 3.16 to 31.6 | 3.16 to 31.6 | [N-]=[N+]=Nc1ccc(NS(=O)(=O)c2c[nH]c3cc(Cl)ccc23)c(F)c1 [Compound I-241, N-(4-azido-2-fluorophenyl)-6-chloro-1H-indole-3-sulfonamide] |
| < 3.16 | < 3.16 | COc1nc(NS(=O)(=O)c2c[nH]c3cc(Cl)ccc23)c(F)cc1CC#N [Compound I-255, 6-chloro-N-[5-(cyanomethyl)-3-fluoro-6-methoxypyridin-2-yl]-1H-indole-3-sulfonamide] |

Continued, molecule first:

| SMILES | IC50 [1] [nM] | Kb [2] [nM] |
| --- | --- | --- |
| O=S(=O)(Nc1cc(F)c(Br)cc1F)c1c[nH]c2cc(Cl)ccc12 [Compound I-213, N-(4-bromo-2,5-difluorophenyl)-6-chloro-1H-indole-3-sulfonamide] | < 3.16 | < 3.16 |
| O=S(=O)(Nc1ccc(S(F)(F)(F)(F)F)cc1F)c1c[nH]c2cc(Cl)ccc12 [Compound I-215, 6-chloro-N-[2-fluoro-4-(pentafluoro-lambda-6-sulfanyl)phenyl]-1H-indole-3-sulfonamide] | 3.16 to 31.6 | 3.16 to 31.6 |
| COc1ccc2c(S(=O)(=O)Nc3cc(F)c(Cl)cc3F)c[nH]c2c1 [Compound I-221, N-(4-chloro-2,5-difluorophenyl)-6-methoxy-1H-indole-3-sulfonamide] | 3.16 to 31.6 | 3.16 to 31.6 |
| O=S(=O)(Nc1cc(F)c(F)cc1F)c1c[nH]c2nc(Cl)ccc12 [Compound I-223, 6-chloro-N-(2,4,5-trifluorophenyl)-1H-pyrrolo[2,3-b]pyridine-3-sulfonamide] | 3.16 to 31.6 | > 31.6 |
| O=S(=O)(Nc1ccc(Cl)cc1F)c1c[nH]c2nc(Cl)ccc12 [Compound I-224, 6-chloro-N-(4-chloro-2-fluorophenyl)-1H-pyrrolo[2,3-b]pyridine-3-sulfonamide] | 3.16 to 31.6 | 3.16 to 31.6 |
| O=S(=O)(Nc1cc2c(cc1F)OC(F)(F)O2)c1c[nH]c2nc(Cl)ccc12 [Compound I-225, 6-chloro-N-(2,2,6-trifluoro-1,3-benzodioxol-5-yl)-1H-pyrrolo[2,3-b]pyridine-3-sulfonamide] | > 31.6 | 3.16 to 31.6 |
| O=S(=O)(Nc1ccc(F)c2nsnc12)c1c[nH]c2nc(Cl)ccc12 [Compound I-226, 6-chloro-N-(7-fluoro-2,1,3-benzothiadiazol-4-yl)-1H-pyrrolo[2,3-b]pyridine-3-sulfonamide] | > 31.6 | > 31.6 |
| O=S(=O)(Nc1cc(F)c(Cl)cc1F)c1c[nH]c2nc(Cl)ccc12 [Compound I-227, 6-chloro-N-(4-chloro-2,5-difluorophenyl)-1H-pyrrolo[2,3-b]pyridine-3-sulfonamide] | < 3.16 | < 3.16 |
| O=S(=O)(Nc1cc(F)c(Cl)cc1F)c1c[nH]c2cc(-c3ccsc3)ccc12 [Compound I-236, N-(4-chloro-2,5-difluorophenyl)-6-(thiophen-3-yl)-1H-indole-3-sulfonamide] | > 31.6 | > 31.6 |
| CS(=O)(=O)c1ccc2c(S(=O)(=O)Nc3cc4c(cc3F)OC(F)(F)O4)c[nH]c2c1 [Compound I-238, 6-(methylsulfonyl)-N-(2,2,6-trifluoro-1,3-benzodioxol-5-yl)-1H-indole-3-sulfonamide] | 3.16 to 31.6 | 3.16 to 31.6 |
| CS(=O)(=O)c1ccc2c(S(=O)(=O)Nc3cc(F)c(F)cc3F)c[nH]c2c1 [Compound I-239, 6-methylsulfonyl-N-(2,4,5-trifluorophenyl)-1H-indole-3-sulfonamide] | > 31.6 | > 31.6 |
| O=S(=O)(Nc1cc(F)c(Cl)cc1F)c1c[nH]c2c(F)c(Cl)ccc12 [Compound I-242, 6-chloro-N-(4-chloro-2,5-difluorophenyl)-7-fluoro-1H-indole-3-sulfonamide] | 3.16 to 31.6 | < 3.16 |
| O=C1OCc2cc(F)c(NS(=O)(=O)c3c[nH]c4cc(Cl)ccc34)cc21 [Compound I-243, 6-chloro-N-(6-fluoro-3-oxo-1,3-dihydro-2-benzofuran-5-yl)-1H-indole-3-sulfonamide] | 3.16 to 31.6 | 3.16 to 31.6 |
| COc1c(Cl)ccc2c(S(=O)(=O)Nc3cc(F)c(Cl)cc3F)c[nH]c12 [Compound I-244, 6-chloro-N-(4-chloro-2,5-difluorophenyl)-7-methoxy-1H-indole-3-sulfonamide] | 3.16 to 31.6 | < 3.16 |
| O=S(=O)(Nc1nc(F)c(Br)cc1F)c1c[nH]c2cc(Cl)ccc12 [Compound I-245, N-(5-bromo-3,6-difluoropyridin-2-yl)-6-chloro-1H-indole-3-sulfonamide] | < 3.16 | < 3.16 |
| O=S(=O)(Nc1cc(F)c(OCC(F)F)cc1F)c1c[nH]c2cc(Cl)ccc12 [Compound I-246, 6-chloro-N-[4-(2,2-difluoroethoxy)-2,5-difluorophenyl]-1H-indole-3-sulfonamide] | < 3.16 | < 3.16 |
| O=S(=O)(Nc1cc(F)c(Cl)cc1F)c1c[nH]c2nc(C(F)(F)F)ccc12 [Compound I-247, N-(4-chloro-2,5-difluorophenyl)-6-(trifluoromethyl)-1H-pyrrolo[2,3-b]pyridine-3-sulfonamide] | 3.16 to 31.6 | < 3.16 |
| O=S(=O)(Nc1cc(F)c(Cl)cc1F)c1c[nH]c2cc(Cl)c(Br)cc12 [Compound I-248, 5-bromo-6-chloro-N-(4-chloro-2,5-difluorophenyl)-1H-indole-3-sulfonamide] | 3.16 to 31.6 | 3.16 to 31.6 |
| Cc1noc(C)c1-c1c(Cl)ccc2c(S(=O)(=O)Nc3cc(F)c(Cl)cc3F)c[nH]c12 [Compound I-250, 6-chloro-N-(4-chloro-2,5-difluorophenyl)-7-(3,5-dimethyl-1,2-oxazol-4-yl)-1H-indole-3-sulfonamide] | 3.16 to 31.6 | 3.16 to 31.6 |
| O=S(=O)(Nc1cc(F)c(Cl)cc1F)c1c[nH]c2cc(Br)cc(F)c12 [Compound I-251, 6-bromo-N-(4-chloro-2,5-difluorophenyl)-4-fluoro-1H-indole-3-sulfonamide] | 3.16 to 31.6 | 3.16 to 31.6 |
| COC/C=C/c1cc(F)c(NS(=O)(=O)c2c[nH]c3cc(Cl)ccc23)nc1F [Compound I-252, 6-chloro-N-{3,6-difluoro-5-[(1E)-3-methoxyprop-1-en-1-yl]pyridin-2-yl}-1H-indole-3-sulfonamide] | < 3.16 | < 3.16 |
| COCCCc1cc(F)c(NS(=O)(=O)c2c[nH]c3cc(Cl)ccc23)nc1F [Compound I-253, 6-chloro-N-[3,6-difluoro-5-(3-methoxypropyl)pyridin-2-yl]-1H-indole-3-sulfonamide] | < 3.16 | < 3.16 |
| COc1nc(NS(=O)(=O)c2c[nH]c3cc(Cl)ccc23)c(F)cc1Cl [Compound I-254, 6-chloro-N-(5-chloro-3-fluoro-6-methoxypyridin-2-yl)-1H-indole-3-sulfonamide] | < 3.16 | < 3.16 |
